Values of other authors as cited in patent publication US10993890B2, “Antifungal solution and foot wipe” (PELLI SKIN CO., LLC, priority 2018, dated 2021).

Experiments:
[1] = octanol/water partition coefficient of the solvent
[2] = test system: skin cells; conditions: 3% ethanol applied to skin cells over the course of two days

| LogKow [1] | Molecule | increase of cell death [2] |
| --- | --- | --- |
| 0.7709 | C1CCOCOC1 [1,3-Dioxepane] |  |
|  | CCO [ethanol] | 26% |
| −1.082 | OC1COCOC1 [5-Hydroxy-1,3-dioxane] |  |
| 0.3792 | CC1COCO1 (centres unmarked) [4-Methyl-1,3-dioxolane] |  |

| Molecule | LogKow [1] | increase of cell death [2] |
| --- | --- | --- |
| 1,3-dioxolan | −0.37 |  |
